Laboratory results from patent publication US9427415B2, “Methods and compositions for modifying sensorial perception” (The Procter & Gamble Company, priority 2014, dated 2016).
Structures can show the parent of a compound that is named as a salt. Where two headings read alike, the source gives them in different places.

Assays:
[1] = target: T1, human TRPA1 (Homo sapiens, UniProt O75762, K186N/R3C/R58T); assay: Intracellular calcium (Fluo-4, FLIPR) activation of TRPA1 cells by GRAS compounds; type: cell-based; conditions: relative to AITC 30 μM; for activation at 1000 µM / A1 activation, % of agonist value: 1 mM; for activation at 1000 µM / activation at 100 µM: read-out: A1 activation, % of agonist value;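 for all read-outs here: TRPA1-expressing cells, fluorescence read on a FLIPR Tetra (ex 488 nm, em 514 nm) every 2 s for 10 min after compound addition, baseline subtracted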
T1 construct: expressed in transfected cells; pcDNA3 control cells

[2] = test system: TRPA1V1; assay: Intracellular calcium (Fluo-4, FLIPR) activation of TRPA1V1 cells (co-expressing TRPA1 and TRPV1) by GRAS compounds; type: cell-based, human; conditions: relative to AITC 30 μM;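 note: HEK293 cells co-expressing TRPA1 and TRPV1, fluorescence read at 488/514 nm after baseline subtraction, recorded every 2 s over 10 min, ionomycin 10 µM and buffer as controls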

T1 sequence (O75762 whole entry R3C/R58T/K186N): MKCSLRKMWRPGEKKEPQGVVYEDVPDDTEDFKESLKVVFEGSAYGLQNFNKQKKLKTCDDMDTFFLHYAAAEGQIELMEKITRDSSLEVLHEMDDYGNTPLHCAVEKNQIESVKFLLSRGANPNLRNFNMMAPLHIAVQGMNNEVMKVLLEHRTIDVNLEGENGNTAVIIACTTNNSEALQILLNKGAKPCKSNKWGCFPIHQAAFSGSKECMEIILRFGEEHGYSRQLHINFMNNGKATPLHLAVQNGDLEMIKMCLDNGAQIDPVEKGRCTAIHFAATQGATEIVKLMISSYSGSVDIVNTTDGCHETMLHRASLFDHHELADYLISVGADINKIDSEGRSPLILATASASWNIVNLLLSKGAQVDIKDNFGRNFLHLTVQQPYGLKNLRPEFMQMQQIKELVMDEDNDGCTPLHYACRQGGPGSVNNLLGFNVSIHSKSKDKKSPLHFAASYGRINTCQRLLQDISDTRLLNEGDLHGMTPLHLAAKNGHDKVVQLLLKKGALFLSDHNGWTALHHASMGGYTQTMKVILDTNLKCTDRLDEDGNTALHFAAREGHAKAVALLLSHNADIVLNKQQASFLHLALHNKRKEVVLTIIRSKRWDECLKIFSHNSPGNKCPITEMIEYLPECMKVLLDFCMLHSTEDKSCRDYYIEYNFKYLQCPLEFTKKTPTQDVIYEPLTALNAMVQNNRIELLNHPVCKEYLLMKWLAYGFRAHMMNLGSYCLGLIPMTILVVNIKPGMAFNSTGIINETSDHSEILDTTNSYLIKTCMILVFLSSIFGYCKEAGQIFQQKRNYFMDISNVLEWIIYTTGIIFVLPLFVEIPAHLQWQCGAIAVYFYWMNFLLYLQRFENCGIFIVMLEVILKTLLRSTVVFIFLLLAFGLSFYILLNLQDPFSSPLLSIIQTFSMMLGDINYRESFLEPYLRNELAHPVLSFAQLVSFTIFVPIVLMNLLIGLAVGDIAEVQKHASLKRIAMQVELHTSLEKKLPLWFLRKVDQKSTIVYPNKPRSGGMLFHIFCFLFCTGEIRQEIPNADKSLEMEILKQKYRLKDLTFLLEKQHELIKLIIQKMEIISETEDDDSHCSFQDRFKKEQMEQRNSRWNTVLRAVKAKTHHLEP

Compound	A1 activation, % of agonist value ([1]; Table 1(c))	A1V1 activation, % of agonist value ([2]; Table 1(c), 1 mM)	activation at 1000 µM ([1]; Table 1(c))	further results
C=C(C)CCC[C@H](C)CCO [Rhodinol]				activation at 1000 µM ([1]; Table 1(d)): 116%; A1V1 activation, % of agonist value ([2]; Table 1(d), 1 mM): 78.75%
C=C(C)CCCC(C)CCOC(C)=O (stereo not drawn) [Rhodinyl acetate]	89.06%	89.69%		
C=C(C)CCC[C@H](C)CCOC(=O)CC(C)C [Rhodinyl isovalerate]	54.92%	48.29%		
C=C(C)CCC[C@H](C)CCOC(=O)CC [Rhodinyl propionate]	75.56%	86.44%		
CC1=C(C=O)C(C)(C)CC=C1 [Safranal]	73%	74.5%		
O=Cc1ccccc1O [Salicylaldehyde]		65.6%	66.9%	
Cc1c[nH]c2ccccc12 [Skatole]		102.9%	116%	activation at 100 µM ([1]; Table 1(c)): 66.2%; A1V1 activation, % of agonist value ([2]; Table 1(c), 100 μM (*)): 71.4%
OC[C@H]1O[C@@](CO)(O[C@H]2O[C@H](CO)[C@@H](O)[C@H](O)[C@H]2O)[C@@H](O)[C@@H]1O [Sucrose]		80.86%	84.1%	
CC1=CCCC(C)(C)C12CCC(C)O2 (stereo not drawn) [Theaspirane]	99%	84%		
CC/C=C/C=O [Trans-2-Pentenal]		68.62%	80.9%	
CCCCCCCCC/C=C/C=O [Trans-2-dodecenal]				activation at 100 µM ([1]; Table 1(c)): 79.1%; A1V1 activation, % of agonist value ([2]; Table 1(c), 100 μM (*)): 66%
COc1ccc(/C=C/C=O)cc1 [Trans-p-methoxy cinnamaldehyde]				activation at 1000 µM ([1]; Table 1(e)): 58.8%; A1V1 activation, % of agonist value ([2]; Table 1(e), 1 mM): 75.99%
CC1=CC(C)C(C=O)CC1 (stereo not drawn) [Trivertal]	35.43%	36.46%		
C=C(C)[C@@H]1CCC2=CCC[C@@H](C)[C@]2(C)C1 [Valencene]	61.97%	66.32%		
COc1ccc(C=O)cc1OC [Veratraldehyde]		69.76%	73.8%	
CCCCCC(C=O)=Cc1ccccc1 [alpha-Amylcinnamaldehyde]		82.7%	86.6%	

Compound	A1 activation, % of agonist value ([1]; Table 1(c))	A1V1 activation, % of agonist value ([2]; Table 1(c), 1 mM)	activation at 1000 µM ([1]; Table 1(c))	further results
CC1=CCC(C(C)(C)OC=O)CC1 (stereo not drawn) [alpha-Terpinyl formate]	82.2%	71%		
C=C1CC/C=C(\C)CC[C@@H]2[C@@H]1CC2(C)C [beta-Caryophyllene]				activation at 1000 µM ([1]; Table 1(d)): 134%; A1V1 activation, % of agonist value ([2]; Table 1(d), 1 mM): 103.8%
C=CC(C)=CCC=C(C)C [beta-Ocimene]		92%	112%	
CC/C=C\CCOC(=O)C/C=C\CC [cis-3-Hexenyl cis-3-hexenoate]		97.4%	107%	
CC/C=C\CCOC(=O)CC(C)C [cis-3-Hexenyl isovalerate]				activation at 1000 µM ([1]; Table 1(d)): 71.7%; A1V1 activation, % of agonist value ([2]; Table 1(d), 1 mM): 51.6%
CC/C=C\CCCCC=O [cis-6-Nonenal]		93%	108%	
C=CC(O)CCCCCCC (stereo not drawn) [dec-1-en-3-ol]				activation at 1000 µM ([1]; Table 1(d)): 90%; A1V1 activation, % of agonist value ([2]; Table 1(d), 1 mM): 69.5%
Cc1ccc(O)cc1 [p-Cresol]				activation at 1000 µM ([1]; Table 1(d)): 61%; A1V1 activation, % of agonist value ([2]; Table 1(d), 1 mM): 38.52%
CC(=O)c1ccc(O)cc1 [p-Hydroxyacetophenone]		49.38%	52.8%	
C=C(C)C1CCC(C)C(=O)C1 (stereo not drawn) [p-Menth-8-en-2-one]				activation at 1000 µM ([1]; Table 1(e)): 39.9%; A1V1 activation, % of agonist value ([2]; Table 1(e), 1 mM): 59.5%
CCCC(=O)OCc1ccc(OC)cc1 [p-Methoxybenzyl butyrate]				activation at 1000 µM ([1]; Table 1(e)): 34%; A1V1 activation, % of agonist value ([2]; Table 1(e), 1 mM): 58.97%
CCC/C=C/COC(=O)CCC [trans-2-Hexenyl butyrate]				activation at 1000 µM ([1]; Table 1(d)): 48.9%; A1V1 activation, % of agonist value ([2]; Table 1(d), 1 mM): 20%
CCCCC/C=C/C=O [trans-2-Octanal]	112%	115%		
Bisabolene				A1 activation, % of agonist value ([1]; Table 1(d)): 77%; A1V1 activation, % of agonist value ([2]; Table 1(d), 1 mM): 46.2%
L-Ascorbic acid, calcium salt (2:1)	88.00%	93.20%		
Myrtenal	95.8%	111.3%		
